Results taken from the Deep4Chem optical property database.
One block for each compound: values may come before it.

Assay: photoluminescence quantum yield (fraction); solvent given as SMILES

photoluminescence quantum yield (in C1COCCO1): 0.02
SMILES: COc1ccc(C2=N/C(=C\c3ccccc3)C(=O)O2)cc1OC

photoluminescence quantum yield (in ClC(Cl)Cl): 0.02
SMILES: Cc1c2c(c(C)c3ccccc13)C1=CC3Nc4ccccc4NC3C=C12 (stereo not given)

SMILES: CC(C)c1cc(C(C)C)c(B2c3ccccc3Oc3cc(N4c5ccccc5C5(c6ccccc6-c6ccccc65)c5ccccc54)ccc32)c(C(C)C)c1
photoluminescence quantum yield (in Cc1ccccc1): 0.76

photoluminescence quantum yield (in CC#N): 0.99
SMILES: C=Cc1cc2ccc(OC)cc2oc1=O

photoluminescence quantum yield (in CS(C)=O): 0.48
SMILES: Clc1ccccc1-c1nc2sc3ccccc3c2s1

photoluminescence quantum yield (in ClCCl): 0.868
SMILES: CCCCCCOc1cc(C=C(C#N)C#N)c(OCCCCCC)cc1C=C(C#N)C#N

photoluminescence quantum yield (in CN(C)C=O): 0.2
SMILES: Nc1ccc(N2C(=O)c3ccc4c5ccc6c7c(ccc(c8ccc(c3c48)C2=O)c75)C(=O)N(c2ccc(N)cc2)C6=O)cc1

photoluminescence quantum yield (in CO): 0.18
SMILES: Cc1cc(C)c(B(c2cc(-c3ccc(N(C)C)cc3)sc2-c2sc(-c3ccc(N(C)C)cc3)cc2P(=O)(c2ccccc2)c2ccccc2)c2c(C)cc(C)cc2C)c(C)c1

photoluminescence quantum yield (in CC#N): 0.23
SMILES: C(=C\c1nc2c3ccccc3c3ccccc3c2o1)/c1ccccc1

SMILES: Cc1cc(C)c(B(c2cc3ccc4cccc5ccc(c2)c3c45)c2c(C)cc(C)cc2C)c(C)c1
photoluminescence quantum yield (in Cc1ccccc1): 0.68

photoluminescence quantum yield (in ClC(Cl)Cl): 0.16
SMILES: FC(F)(F)c1ccc(-c2nc(-c3ccc(C(F)(F)F)cc3)n3ccccc23)cc1

SMILES: CCCCCCc1cc2/c(=C(\C#N)C(=O)OC)s/c(=c3/s/c(=C(/C#N)C(=O)OC)c4cc(CCCCCC)sc34)c2s1
photoluminescence quantum yield (in Cc1ccccc1): 0.086

photoluminescence quantum yield (in ClCCl): 0.00491
SMILES: COC(=O)C1=C(C(=O)OC)C2(c3ccccc3-c3ccccc32)[C@@H](c2ccc(C)cc2)C=C2c3cc(OC)c(OC)cc3CCN21

photoluminescence quantum yield (in CCO): 0.638
SMILES: COc1cc(OC)cc(C(=O)OCc2c(C)c(=O)n3c(=O)c(C)c(C)n23)c1

photoluminescence quantum yield (in CC#N): 0.04
photoluminescence quantum yield (in CCCCCC): 0.08
photoluminescence quantum yield (in CO): 0.16
photoluminescence quantum yield (in ClC(Cl)Cl): 0.07
photoluminescence quantum yield (in ClCCl): 0.06
SMILES: CC1=CC(C)=[N+]2C1=C(c1ccc3cccnc3n1)c1c(C)cc(C)n1[B-]2(F)F

photoluminescence quantum yield (in CCO): 0.19
SMILES: c1ccc(C2c3ccccc3-c3ccccc32)cc1

photoluminescence quantum yield (in C1COCCO1): 0.034
SMILES: COc1ccc(C2=N/C(=C\c3ccccc3)C(=O)N2)cc1OC

SMILES: Cc1c2ccccc2c(C2=C3C=CC=[N+]3[B-](F)(F)n3cccc32)c2ccccc12
photoluminescence quantum yield (in CC#N): 0.001
photoluminescence quantum yield (in CCCCCC): 0.041
photoluminescence quantum yield (in CCO): 0.002
photoluminescence quantum yield (in CN(C)C=O): 0.002
photoluminescence quantum yield (in Cc1ccccc1): 0.007
photoluminescence quantum yield (in ClCCl): 0.005

photoluminescence quantum yield (in CCOC(C)=O): 0.82
SMILES: O=C(O)c1cc2c(cc3ccc4cccc5ccc2c3c45)[nH]1

photoluminescence quantum yield (in C1CCOC1): 0.448
SMILES: COc1cc2oc(=O)c3c4ccc(C(=O)c5ccccc5)cc4c4ccc5cccc6c(c1)c2c3c4c56

photoluminescence quantum yield (in ClCCl): 0
SMILES: COc1ccc2cc(C3=[N+]4C(=Nc5c(-c6ccc7ccccc7c6)c(Br)c(-c6ccc7cc(OC)ccc7c6)n5[B-]4(F)F)C(c4ccc5ccccc5c4)=C3Br)ccc2c1

photoluminescence quantum yield (in CCO): 0.68
photoluminescence quantum yield (in ClC(Cl)Cl): 0.23
SMILES: CCOc1ccc2c(-c3nc(-c4cccc(C)c4)no3)cc(=O)oc2c1

SMILES: c1ccc(N(c2ccccc2)c2cc3c4c(c2)N(c2ccccc2)c2cc5c(cc2B4c2ccccc2N3c2ccccc2)B2c3ccccc3N(c3ccccc3)c3cc(N(c4ccccc4)c4ccccc4)cc(c32)N5c2ccccc2)cc1
photoluminescence quantum yield (in Cc1ccccc1): 0.74
photoluminescence quantum yield (in Cc1ccccc1-c1cccc(Oc2cc3c4c(c2)Oc2cc(-c5ccccc5C)ccc2B4c2ccc(-c4ccccc4C)cc2O3)c1): 0.82

photoluminescence quantum yield (in ClCCl): 0.75
SMILES: CC(C)[Si](C#Cc1c2ccccc2c(C#C[Si](C(C)C)(C(C)C)C(C)C)c2nc3c4ccccc4c(=O)c4ccccc4c3nc12)(C(C)C)C(C)C

photoluminescence quantum yield (in ClCCl): 0.24
SMILES: FC(F)(F)c1ccc(C#Cc2ncc(-c3ccccc3)o2)cc1

photoluminescence quantum yield (in CC#N): 0.24
photoluminescence quantum yield (in CCCCCC): 0.31
SMILES: C/C=C/c1cccc(OC)c1

photoluminescence quantum yield (in CCO): 0.39
SMILES: CC/[NH+]=c1\cc2oc3cc(NCCC(=O)NC(C)C(=O)OC)c4ccccc4c3nc-2cc1C (stereo not given)

photoluminescence quantum yield (in ClCCl): 0.01
SMILES: CN(C)c1ccc(C2=C3C=C(c4ccc(C=C(C#N)C#N)cc4)S[C@]34c3ccccc3[C@H]2c2ccccc24)cc1
